Results from ChEMBL document CHEMBL1130211, “Synthesis and anti-hepatitis B virus activity of 9-(2-deoxy-2-fluoro-beta-L-arabinofuranosyl) purine nucleosides” (J Med Chem, 1997).

Legend:
Format in all cases: functional, cell-based
Settings in all cases: Homo sapiens
[1] = system: HepG2; assay: compound was tested in vitro for anti HBV activity in HepG2 2.2.15 cells
[2] = system: HepG2; assay: The cytotoxicity against HepG2 2.2.15 cells expressed as IC50
[3] = system: HepG2; assay: The cytotoxicity against 2.2.15 cells expressed as IC50
[4] = system: CCRF-CEM; assay: The cytotoxicity against CEM cells

| EC50 [1] [µM] | Compound | IC50 [2] [µM] | IC50 [3] [µM] | IC50 [4] [µM] |
| --- | --- | --- | --- | --- |
| > 10 | OC[C@@H]1O[C@H](n2cnc3c(S)ncnc32)[C@H](F)[C@H]1O |  | > 200 |  |
| > 10 | CNc1ncnc2c1ncn2[C@H]1O[C@@H](CO)[C@H](O)[C@H]1F | > 200 |  |  |
| 8 | OC[C@H]1O[C@@H](n2cnc3c(O)ncnc32)[C@H](F)[C@@H]1O |  | > 200 | > 100 |
| 1.5 | Nc1ncnc2c1ncn2[C@@H]1O[C@H](CO)[C@@H](O)[C@H]1F [2'-BETA-FLUORO-2',3'-DEOXYADENOSINE] | > 200 |  | 90 |

More lines, now with the values behind:

| Compound | EC50 [1] [µM] | IC50 [2] [µM] | IC50 [3] [µM] | IC50 [4] [µM] |
| --- | --- | --- | --- | --- |
| OC[C@@H]1O[C@H](n2cnc3cncnc32)[C@H](F)[C@H]1O | > 10 | > 200 |  |  |
| CN(C)c1ncnc2c1ncn2[C@H]1O[C@@H](CO)[C@H](O)[C@H]1F | > 10 | > 200 |  |  |
| Nc1nc(Cl)nc2c1ncn2[C@@H]1O[C@H](CO)[C@@H](O)[C@H]1F | > 10 |  | > 200 |  |
| Nc1nc(N)c2ncn([C@@H]3O[C@H](CO)[C@@H](O)[C@H]3F)c2n1 | > 10 |  | > 180 |  |
| OC[C@H]1O[C@@H](n2cnc3c(NC4CC4)ncnc32)[C@H](F)[C@@H]1O | > 10 | > 200 |  |  |
| Nc1nc(O)c2ncn([C@@H]3O[C@H](CO)[C@@H](O)[C@@H]3F)c2n1 [F-ARAG] | > 10 |  | > 200 | > 100 |
